According to ChEMBL document CHEMBL4507288 (2021):
Active and inactive are the calls of the source. The calls are words filed in the database; no cut-off is given here.

Columns and labels:
[1] = biological target: 5-hydroxytryptamine receptor 2B (Homo sapiens, UniProt P41595); assay: GPCRScan assay: inhibition of 5-HT2B; design: radioligand conc. used [nm] 1.0 – 2.0, parental cells stable HEK
[2] = biological target: 5-hydroxytryptamine receptor 7 (Homo sapiens, UniProt P34969); assay: GPCRScan assay: inhibition of 5-HT7A; design: radioligand conc. used [nm] 5.0 – 6.0, parental cells Stable HEK
[3] = biological target: Serine/threonine-protein kinase pim-2 (Homo sapiens) (UniProt Q9P1W9); conditions: Compound concentration 1000.0 nM
[4] = biological target: Mitogen-activated protein kinase kinase kinase 15 (Homo sapiens) (UniProt Q6ZN16); conditions: Compound concentration 1000.0 nM
[5] = biological target: Myotonin-protein kinase (Homo sapiens) (UniProt Q09013); conditions: Compound concentration 1000.0 nM
[6] = biological target: Serine/threonine-protein kinase Nek10 (Homo sapiens) (UniProt Q6ZWH5); conditions: Compound concentration 1000.0 nM
[7] = biological target: Serine/threonine-protein kinase PAK 6 (Homo sapiens) (UniProt Q9NQU5); conditions: Compound concentration 1000.0 nM
[8] = system: Epidermal growth factor receptor (Homo sapiens), P00533 [UNDEFINED MUTATION]; conditions: Compound concentration 1000.0 nM
[9] = biological target: 5-hydroxytryptamine receptor 1E (Homo sapiens) (UniProt P28566); conditions: Compound concentration 10.0 uM
[10] = biological target: Protein kinase C theta type (Homo sapiens) (UniProt Q04759); conditions: Compound concentration 1000.0 nM
[11] = biological target: Tyrosine-protein kinase TXK (Homo sapiens) (UniProt P42681); conditions: Compound concentration 1000.0 nM
[12] = biological target: Serine/threonine-protein kinase Sgk2 (Homo sapiens) (UniProt Q9HBY8); conditions: Compound concentration 1000.0 nM
[13] = biological target: Serine/threonine-protein kinase 10 (Homo sapiens) (UniProt O94804); conditions: Compound concentration 1000.0 nM
[14] = biological target: Casein kinase I isoform gamma-1 (Homo sapiens) (UniProt Q9HCP0); conditions: Compound concentration 1000.0 nM
[15] = biological target: Serine/threonine-protein kinase 17A (Homo sapiens) (UniProt Q9UEE5); conditions: Compound concentration 1000.0 nM
[16] = biological target: BDNF/NT-3 growth factors receptor (Homo sapiens) (UniProt Q16620); conditions: Compound concentration 1000.0 nM
[17] = biological target: Rhodopsin kinase GRK1 (Homo sapiens) (UniProt Q15835); conditions: Compound concentration 1000.0 nM
[18] = biological target: Cyclin-dependent kinase 2 homolog (Plasmodium falciparum (isolate 3D7)) (UniProt P61075); conditions: Compound concentration 1000.0 nM
[19] = biological target: Tyrosine-protein kinase Yes (Homo sapiens) (UniProt P07947); conditions: Compound concentration 1000.0 nM
[20] = biological target: Serine/threonine-protein kinase Nek7 (Homo sapiens) (UniProt Q8TDX7); conditions: Compound concentration 1000.0 nM
[21] = biological target: Activin receptor type-2A (Homo sapiens) (UniProt P27037); conditions: Compound concentration 1000.0 nM
[22] = system: Epidermal growth factor receptor (Homo sapiens), P00533 [G719S]; conditions: Compound concentration 1000.0 nM
[23] = system: Proto-oncogene tyrosine-protein kinase receptor Ret (Homo sapiens), P07949 [V804L]; conditions: Compound concentration 1000.0 nM
[24] = biological target: Tyrosine-protein kinase Fer (Homo sapiens) (UniProt P16591); conditions: Compound concentration 1000.0 nM
[25] = biological target: Microtubule-associated serine/threonine-protein kinase 1 (Homo sapiens) (UniProt Q9Y2H9); conditions: Compound concentration 1000.0 nM
[26] = biological target: Mitogen-activated protein kinase 6 (Homo sapiens) (UniProt Q16659); conditions: Compound concentration 1000.0 nM
[27] = biological target: Ephrin type-A receptor 8 (Homo sapiens) (UniProt P29322); conditions: Compound concentration 1000.0 nM
[28] = biological target: Dual specificity mitogen-activated protein kinase kinase 6 (Homo sapiens) (UniProt P52564); conditions: Compound concentration 1000.0 nM
[29] = biological target: Dual specificity protein kinase CLK2 (Homo sapiens) (UniProt P49760); conditions: Compound concentration 1000.0 nM
[30] = biological target: Amyloid-beta precursor protein (Homo sapiens, UniProt P05067); assay: Radioligand Binding Assay
[31] = biological target: Mitogen-activated protein kinase 9 (Homo sapiens) (UniProt P45984); conditions: Compound concentration 1000.0 nM
[32] = biological target: Phosphatidylinositol 4,5-bisphosphate 3-kinase catalytic subunit alpha isoform (Homo sapiens) (UniProt P42336); conditions: Compound concentration 1000.0 nM
[33] = biological target: Misshapen-like kinase 1 (Homo sapiens) (UniProt Q8N4C8); conditions: Compound concentration 1000.0 nM
[34] = biological target: Ribosomal protein S6 kinase alpha-1 (Homo sapiens) (UniProt Q15418); conditions: Compound concentration 1000.0 nM
[35] = biological target: Insulin receptor-related protein (Homo sapiens) (UniProt P14616); conditions: Compound concentration 1000.0 nM
[36] = biological target: Cyclin-dependent kinase 19 (Homo sapiens) (UniProt Q9BWU1); conditions: Compound concentration 1000.0 nM
[37] = biological target: Tyrosine-protein kinase JAK3 (Homo sapiens) (UniProt P52333); conditions: Compound concentration 1000.0 nM
[38] = biological target: Cyclin-dependent kinase 2 (Homo sapiens) (UniProt P24941); conditions: Compound concentration 1000.0 nM
[39] = biological target: Casein kinase I isoform alpha (Homo sapiens) (UniProt P48729); conditions: Compound concentration 1000.0 nM
[40] = biological target: Serine/threonine-protein kinase 38-like (Homo sapiens) (UniProt Q9Y2H1); conditions: Compound concentration 1000.0 nM
[41] = biological target: Phosphatidylinositol 4-phosphate 5-kinase type-1 alpha (Homo sapiens) (UniProt Q99755); conditions: Compound concentration 1000.0 nM
[42] = biological target: Serine/threonine-protein kinase PLK4 (Homo sapiens) (UniProt O00444); conditions: Compound concentration 1000.0 nM
[43] = system: Receptor-type tyrosine-protein kinase FLT3 (Homo sapiens), P36888 [R834Q]; conditions: Compound concentration 1000.0 nM
[44] = system: Epidermal growth factor receptor (Homo sapiens), P00533 [UNDEFINED MUTATION]; conditions: Compound concentration 1000.0 nM; remark: listed apart in the source
[45] = biological target: Phosphatidylinositol 4-phosphate 3-kinase C2 domain-containing subunit beta (Homo sapiens) (UniProt O00750); conditions: Compound concentration 1000.0 nM

Chain of 5-hydroxytryptamine receptor 7 (P34969 whole entry): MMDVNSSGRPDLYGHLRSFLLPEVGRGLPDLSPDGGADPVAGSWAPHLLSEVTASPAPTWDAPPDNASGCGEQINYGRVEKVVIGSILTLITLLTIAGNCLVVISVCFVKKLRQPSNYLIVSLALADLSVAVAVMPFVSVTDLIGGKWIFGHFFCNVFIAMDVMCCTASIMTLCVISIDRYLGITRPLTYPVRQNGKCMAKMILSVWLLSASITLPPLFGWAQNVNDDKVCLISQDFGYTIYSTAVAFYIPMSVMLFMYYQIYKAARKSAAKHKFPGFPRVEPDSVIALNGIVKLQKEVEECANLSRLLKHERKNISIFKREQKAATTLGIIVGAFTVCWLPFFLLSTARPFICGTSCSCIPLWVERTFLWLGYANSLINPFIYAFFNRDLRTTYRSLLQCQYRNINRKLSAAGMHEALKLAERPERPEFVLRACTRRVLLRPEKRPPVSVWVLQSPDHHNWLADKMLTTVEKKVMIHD
Chain of Tyrosine-protein kinase TXK (Homo sapiens) (P42681 whole entry): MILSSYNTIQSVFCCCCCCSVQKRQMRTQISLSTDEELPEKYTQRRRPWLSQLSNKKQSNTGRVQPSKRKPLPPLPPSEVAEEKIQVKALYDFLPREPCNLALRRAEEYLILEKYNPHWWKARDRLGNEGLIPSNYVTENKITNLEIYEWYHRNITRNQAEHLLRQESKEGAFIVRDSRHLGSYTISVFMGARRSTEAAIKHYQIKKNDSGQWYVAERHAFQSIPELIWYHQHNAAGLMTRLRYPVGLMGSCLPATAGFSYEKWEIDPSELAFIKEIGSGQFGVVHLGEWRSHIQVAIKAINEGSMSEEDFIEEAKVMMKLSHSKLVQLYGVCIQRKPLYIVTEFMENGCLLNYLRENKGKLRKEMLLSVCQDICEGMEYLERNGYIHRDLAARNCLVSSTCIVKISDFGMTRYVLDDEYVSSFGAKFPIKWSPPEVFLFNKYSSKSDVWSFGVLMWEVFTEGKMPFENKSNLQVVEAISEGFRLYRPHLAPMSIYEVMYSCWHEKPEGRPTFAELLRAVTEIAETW
Chain of Phosphatidylinositol 4-phosphate 5-kinase type-1 alpha (Homo sapiens) (Q99755 whole entry): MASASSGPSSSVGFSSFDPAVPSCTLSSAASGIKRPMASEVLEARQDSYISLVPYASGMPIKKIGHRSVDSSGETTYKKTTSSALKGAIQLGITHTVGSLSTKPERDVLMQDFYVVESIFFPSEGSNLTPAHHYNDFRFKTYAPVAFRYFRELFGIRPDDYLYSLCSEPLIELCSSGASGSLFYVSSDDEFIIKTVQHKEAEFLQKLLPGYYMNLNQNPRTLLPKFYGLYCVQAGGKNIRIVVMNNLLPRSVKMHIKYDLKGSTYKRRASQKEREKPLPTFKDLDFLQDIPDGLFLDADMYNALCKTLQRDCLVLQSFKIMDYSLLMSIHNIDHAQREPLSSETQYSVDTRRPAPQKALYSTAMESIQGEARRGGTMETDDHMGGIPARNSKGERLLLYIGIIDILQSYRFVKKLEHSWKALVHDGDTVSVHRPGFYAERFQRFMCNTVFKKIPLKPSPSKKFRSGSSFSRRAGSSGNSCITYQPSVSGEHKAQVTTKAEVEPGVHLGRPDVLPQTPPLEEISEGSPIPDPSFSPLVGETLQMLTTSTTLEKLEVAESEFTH
Chain of Tyrosine-protein kinase JAK3 (Homo sapiens) (P52333 whole entry): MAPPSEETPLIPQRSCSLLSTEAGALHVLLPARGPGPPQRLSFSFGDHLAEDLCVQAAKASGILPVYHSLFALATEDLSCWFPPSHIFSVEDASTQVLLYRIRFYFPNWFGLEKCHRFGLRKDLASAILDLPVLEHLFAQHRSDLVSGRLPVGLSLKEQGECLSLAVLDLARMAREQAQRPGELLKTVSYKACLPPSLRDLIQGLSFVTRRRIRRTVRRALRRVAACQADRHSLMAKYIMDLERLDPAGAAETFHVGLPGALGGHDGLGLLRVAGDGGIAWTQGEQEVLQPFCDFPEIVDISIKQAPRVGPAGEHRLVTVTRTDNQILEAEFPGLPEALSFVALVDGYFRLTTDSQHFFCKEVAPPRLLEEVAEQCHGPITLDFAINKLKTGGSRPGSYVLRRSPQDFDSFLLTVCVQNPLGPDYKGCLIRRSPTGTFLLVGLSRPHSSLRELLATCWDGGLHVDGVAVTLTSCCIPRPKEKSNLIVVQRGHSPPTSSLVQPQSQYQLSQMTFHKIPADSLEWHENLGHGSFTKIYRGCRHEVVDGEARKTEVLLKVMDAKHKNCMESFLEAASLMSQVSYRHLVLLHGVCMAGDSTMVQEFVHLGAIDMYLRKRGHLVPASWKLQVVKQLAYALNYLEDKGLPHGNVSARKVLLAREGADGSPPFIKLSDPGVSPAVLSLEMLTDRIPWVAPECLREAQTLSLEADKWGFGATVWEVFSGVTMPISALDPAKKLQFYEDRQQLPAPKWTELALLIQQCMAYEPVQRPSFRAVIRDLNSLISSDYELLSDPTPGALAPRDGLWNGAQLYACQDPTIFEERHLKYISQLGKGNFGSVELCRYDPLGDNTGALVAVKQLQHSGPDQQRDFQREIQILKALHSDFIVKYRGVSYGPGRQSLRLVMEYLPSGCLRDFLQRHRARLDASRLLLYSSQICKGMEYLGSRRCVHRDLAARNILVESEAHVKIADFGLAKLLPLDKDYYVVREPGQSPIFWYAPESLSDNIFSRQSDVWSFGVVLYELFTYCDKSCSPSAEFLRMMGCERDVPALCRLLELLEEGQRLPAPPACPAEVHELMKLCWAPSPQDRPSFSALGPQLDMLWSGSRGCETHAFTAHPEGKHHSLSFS
Chain of Mitogen-activated protein kinase kinase kinase 15 (Homo sapiens) (Q6ZN16 whole entry): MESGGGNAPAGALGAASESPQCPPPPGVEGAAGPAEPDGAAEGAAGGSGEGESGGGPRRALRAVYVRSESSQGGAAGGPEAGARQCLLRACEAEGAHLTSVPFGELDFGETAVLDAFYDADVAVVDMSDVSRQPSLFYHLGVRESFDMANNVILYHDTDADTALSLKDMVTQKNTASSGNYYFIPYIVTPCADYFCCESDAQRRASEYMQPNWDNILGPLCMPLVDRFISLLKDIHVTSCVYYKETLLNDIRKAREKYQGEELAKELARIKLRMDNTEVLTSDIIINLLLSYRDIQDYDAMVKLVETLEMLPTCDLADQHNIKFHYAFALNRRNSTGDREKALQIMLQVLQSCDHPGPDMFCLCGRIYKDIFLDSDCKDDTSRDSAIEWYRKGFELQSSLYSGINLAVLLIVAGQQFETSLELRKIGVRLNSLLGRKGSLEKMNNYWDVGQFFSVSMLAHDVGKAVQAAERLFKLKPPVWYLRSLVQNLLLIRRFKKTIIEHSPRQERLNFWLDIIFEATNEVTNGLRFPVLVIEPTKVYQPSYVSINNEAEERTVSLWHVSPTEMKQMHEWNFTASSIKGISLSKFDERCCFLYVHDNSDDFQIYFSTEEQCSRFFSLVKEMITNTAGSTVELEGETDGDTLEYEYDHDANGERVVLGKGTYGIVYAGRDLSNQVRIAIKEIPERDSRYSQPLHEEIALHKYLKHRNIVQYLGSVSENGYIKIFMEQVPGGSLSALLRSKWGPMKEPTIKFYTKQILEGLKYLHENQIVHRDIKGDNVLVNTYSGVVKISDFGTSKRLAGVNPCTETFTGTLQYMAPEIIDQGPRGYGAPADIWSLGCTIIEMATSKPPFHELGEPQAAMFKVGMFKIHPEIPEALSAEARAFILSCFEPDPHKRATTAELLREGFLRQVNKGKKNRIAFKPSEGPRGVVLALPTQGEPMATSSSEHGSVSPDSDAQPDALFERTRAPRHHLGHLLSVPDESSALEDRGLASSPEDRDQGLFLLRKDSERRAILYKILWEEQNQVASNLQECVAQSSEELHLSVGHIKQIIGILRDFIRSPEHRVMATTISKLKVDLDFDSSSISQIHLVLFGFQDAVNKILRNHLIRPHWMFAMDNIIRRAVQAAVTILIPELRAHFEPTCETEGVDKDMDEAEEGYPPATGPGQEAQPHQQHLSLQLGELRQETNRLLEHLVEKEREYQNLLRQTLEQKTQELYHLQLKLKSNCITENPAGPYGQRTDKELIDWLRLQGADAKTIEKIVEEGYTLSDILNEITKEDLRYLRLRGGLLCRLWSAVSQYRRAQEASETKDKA
Chain of Mitogen-activated protein kinase 6 (Homo sapiens) (Q16659 whole entry): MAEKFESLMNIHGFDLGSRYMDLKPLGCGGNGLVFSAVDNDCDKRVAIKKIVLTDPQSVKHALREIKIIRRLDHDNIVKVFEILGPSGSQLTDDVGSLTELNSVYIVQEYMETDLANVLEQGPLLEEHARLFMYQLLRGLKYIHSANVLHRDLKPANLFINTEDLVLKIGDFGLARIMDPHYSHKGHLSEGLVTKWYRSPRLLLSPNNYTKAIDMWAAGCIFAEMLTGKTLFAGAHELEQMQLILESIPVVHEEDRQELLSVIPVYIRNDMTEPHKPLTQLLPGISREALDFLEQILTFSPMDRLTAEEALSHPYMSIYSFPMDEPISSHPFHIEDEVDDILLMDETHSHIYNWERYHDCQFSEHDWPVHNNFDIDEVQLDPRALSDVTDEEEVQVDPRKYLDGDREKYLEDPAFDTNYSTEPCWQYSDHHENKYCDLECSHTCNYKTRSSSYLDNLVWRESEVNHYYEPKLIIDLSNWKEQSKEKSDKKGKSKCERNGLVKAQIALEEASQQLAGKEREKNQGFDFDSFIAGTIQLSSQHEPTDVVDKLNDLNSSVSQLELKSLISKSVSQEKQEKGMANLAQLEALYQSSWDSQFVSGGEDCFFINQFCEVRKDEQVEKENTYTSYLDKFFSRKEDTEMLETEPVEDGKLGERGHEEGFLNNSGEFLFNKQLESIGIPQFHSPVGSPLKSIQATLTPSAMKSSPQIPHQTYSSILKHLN
Chain of Dual specificity mitogen-activated protein kinase kinase 6 (Homo sapiens) (P52564 whole entry): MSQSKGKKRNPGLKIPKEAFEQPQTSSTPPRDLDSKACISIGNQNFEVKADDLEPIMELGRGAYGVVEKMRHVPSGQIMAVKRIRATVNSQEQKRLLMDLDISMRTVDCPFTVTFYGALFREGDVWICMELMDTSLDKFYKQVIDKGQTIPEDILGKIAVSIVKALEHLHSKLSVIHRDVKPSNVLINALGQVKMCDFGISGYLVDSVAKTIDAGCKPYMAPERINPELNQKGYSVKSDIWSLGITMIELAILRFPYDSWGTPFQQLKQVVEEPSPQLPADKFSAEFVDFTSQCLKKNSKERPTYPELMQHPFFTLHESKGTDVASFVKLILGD

CC(C)(C)OC(=O)N1CCCC1CNC1CCC(c2cc(F)ccc2F)(S(=O)(=O)c2ccc(Cl)cc2)CC1 (stereo unspecified) [GSI-NC]
Ki [1]: 21 nM | Ki ([2]; read-out: Ki): 826 nM | Ki ([2]; read-out: pKi (converted)): 851 nM

O=S(=O)(NC1CCC(c2cc(F)ccc2F)(S(=O)(=O)c2ccc(Cl)cc2)CC1)C(F)(F)F (stereo unspecified) [MRK-560]
residual activity [3]: 100% | residual activity [4]: 78% | residual activity [5]: 100% | residual activity [6]: 100% | residual activity [7]: 100% | residual activity [8]: 0% | inhibition [9]: -8.31% | residual activity [10]: 100% | residual activity [11]: 99% | residual activity [12]: 93% | residual activity [13]: 100% | residual activity [14]: 86% | residual activity [15]: 86% | residual activity [16]: 83% | residual activity [17]: 84% | residual activity [18]: 100% | residual activity [19]: 89% | residual activity [20]: 100% | residual activity [21]: 63% | residual activity [22]: 100% | residual activity [23]: 84% | residual activity [24]: 100% | residual activity [25]: 100% | residual activity [26]: 100% | residual activity [27]: 100% | residual activity [28]: 100% | residual activity [29]: 100% | IC50 [30]: 0.65 nM (active) | residual activity [31]: 73% | residual activity [32]: 100% | residual activity [33]: 100% | residual activity [34]: 100% | residual activity [35]: 100% | residual activity [36]: 100% | residual activity [37]: 100% | residual activity [38]: 100% | residual activity [39]: 100% | residual activity [40]: 75% | residual activity [41]: 100% | residual activity [42]: 100% | residual activity [43]: 100% | residual activity [44]: 100% | residual activity [45]: 100%
